Key:
[1] = molecular target: T1, Sodium- and chloride-dependent glycine transporter 1 (Homo sapiens, UniProt P48067); assay: Displacement of [3H]glycine from human GlyT1 by radiometric assay
T1 sequence (P48067 whole entry): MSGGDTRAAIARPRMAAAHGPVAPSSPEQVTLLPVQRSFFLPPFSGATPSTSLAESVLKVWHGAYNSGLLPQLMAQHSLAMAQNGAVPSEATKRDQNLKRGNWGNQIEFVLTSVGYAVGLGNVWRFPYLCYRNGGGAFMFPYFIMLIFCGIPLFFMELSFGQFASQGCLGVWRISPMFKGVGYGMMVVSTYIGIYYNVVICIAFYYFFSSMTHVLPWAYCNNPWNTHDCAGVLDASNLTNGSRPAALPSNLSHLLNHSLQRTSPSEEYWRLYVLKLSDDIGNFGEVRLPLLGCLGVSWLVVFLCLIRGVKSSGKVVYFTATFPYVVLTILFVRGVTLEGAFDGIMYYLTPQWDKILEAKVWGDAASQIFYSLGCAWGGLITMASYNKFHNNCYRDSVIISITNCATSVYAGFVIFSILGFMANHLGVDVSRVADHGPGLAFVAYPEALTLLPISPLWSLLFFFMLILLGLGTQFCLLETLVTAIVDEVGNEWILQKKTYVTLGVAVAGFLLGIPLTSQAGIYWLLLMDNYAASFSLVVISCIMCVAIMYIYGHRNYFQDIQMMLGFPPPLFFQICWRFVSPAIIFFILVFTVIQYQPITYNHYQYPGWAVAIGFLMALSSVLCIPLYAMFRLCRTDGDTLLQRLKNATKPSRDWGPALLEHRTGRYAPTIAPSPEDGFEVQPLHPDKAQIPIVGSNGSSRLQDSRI

[2] = molecular target: T2, Sodium- and chloride-dependent glycine transporter 2 (Homo sapiens, UniProt Q9Y345); assay: Displacement of [3H]glycine from human GlyT2 by radiometric assay
T2 sequence (Q9Y345 whole entry): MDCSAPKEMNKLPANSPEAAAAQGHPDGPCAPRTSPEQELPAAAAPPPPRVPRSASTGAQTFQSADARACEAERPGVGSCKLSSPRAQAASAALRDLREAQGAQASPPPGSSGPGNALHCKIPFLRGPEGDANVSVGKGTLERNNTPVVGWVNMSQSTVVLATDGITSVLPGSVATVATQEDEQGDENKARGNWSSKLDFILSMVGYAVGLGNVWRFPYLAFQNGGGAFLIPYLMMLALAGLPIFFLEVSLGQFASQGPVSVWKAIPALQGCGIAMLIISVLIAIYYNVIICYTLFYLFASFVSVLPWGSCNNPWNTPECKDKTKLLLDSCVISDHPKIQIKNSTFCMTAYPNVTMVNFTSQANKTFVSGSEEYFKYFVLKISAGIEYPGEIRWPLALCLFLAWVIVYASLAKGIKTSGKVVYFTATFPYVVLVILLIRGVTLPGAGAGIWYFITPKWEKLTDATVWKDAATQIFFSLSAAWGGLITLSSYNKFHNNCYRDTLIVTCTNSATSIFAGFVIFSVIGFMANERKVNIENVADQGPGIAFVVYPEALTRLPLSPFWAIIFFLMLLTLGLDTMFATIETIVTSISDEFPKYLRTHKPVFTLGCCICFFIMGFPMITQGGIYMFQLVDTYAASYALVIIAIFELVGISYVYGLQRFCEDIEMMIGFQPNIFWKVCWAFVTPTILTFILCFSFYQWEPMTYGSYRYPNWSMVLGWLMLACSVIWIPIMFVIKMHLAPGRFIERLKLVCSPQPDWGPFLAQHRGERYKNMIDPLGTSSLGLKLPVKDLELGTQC

[3] = Maximum achievable bioavailability in human microsomes; type: ADME, Microsome; settings: human liver microsomes, read-out: Max Achievable Bioavailability
[4] = Clearance in human microsomes; type: ADME, Microsome; settings: human liver microsomes
[5] = Clearance in mouse microsomes; type: ADME, Liver, Microsome
[6] = Maximum achievable bioavailability in mouse microsomes; type: ADME, Liver, microsome; settings: read-out: Max Achievable Bioavailability

SMILES | EC50 [1] | EC50 [2] | further results
O=C1NCN(c2ccccc2)C12CCN([C@@H]1CCCC[C@@]1(O)c1cccc(Cl)c1)CC2 (racemic) | 130 nM | 21000 nM | –
O=C1NCN(c2ccccc2)C12CCN([C@@H]1CCCC[C@@]1(O)c1ccccn1)CC2 (racemic) | 130 nM | > 100000 nM | –
O=C1NCN(c2ccccc2)C12CCN([C@@H]1COCC[C@@]1(O)c1ccccc1)CC2 (racemic) | 58 nM | 35000 nM | –
O=C1NCN(c2ccccc2)C12CCN([C@@H]1CCCC[C@@]1(O)c1ccc(Cl)c(Cl)c1)CC2 (racemic) | 173 nM | 6000 nM | –
CCCN1CNC(=O)C12CCN([C@@H]1CCCC[C@@]1(O)c1ccccc1)CC2 (racemic) | 400 nM | – | Fh [3]: 84%; microsomal CLint [4]: 5 µL/min/mg; microsomal CLint [5]: 7 µL/min/mg; Fh [6]: 81%
O=C1NCN(c2ccc(F)cc2)C12CCN([C@@H]1CCCC[C@@]1(O)c1ccc(F)cc1)CC2 (racemic) | 24 nM | 36000 nM | microsomal CLint [4]: 92 µL/min/mg; microsomal CLint [5]: 102 µL/min/mg
CC(C)(C)[C@]1(O)CCCC[C@H]1N1CCC2(CC1)C(=O)NCN2c1ccccc1 (racemic) | 29000 nM | – | –
COc1ccc(N2CNC(=O)C23CCN([C@@H]2CCCC[C@@]2(O)c2ccc(Cl)cc2)CC3)cc1 (racemic) | 99 nM | 25000 nM | –
O=C1NCN(c2ccccc2)C12CCN([C@@H]1CCOC[C@@]1(O)c1ccccc1)CC2 (racemic) | 90 nM | > 100000 nM | –
COc1ccc([C@]2(O)CCCC[C@H]2N2CCC3(CC2)C(=O)NCN3c2ccccc2)cc1 (racemic) | 261 nM | 67000 nM | –
O=C1NCN(c2ccccc2)C12CCN([C@@H]1CCCC[C@@]1(O)c1cccnc1)CC2 (racemic) | 110 nM | – | –
Cc1ccccc1[C@]1(O)CCCC[C@H]1N1CCC2(CC1)C(=O)NCN2c1ccccc1 (racemic) | 50 nM | 70000 nM | –
O=C1NCN(c2ccccc2)C12CCN([C@H]1CCCC[C@@]1(O)c1ccccc1)CC2 (racemic) | 56 nM | 26000 nM | –
O=C1NCN(c2ccccc2)C12CCN([C@@H]1CCCC[C@@]1(O)c1ccncc1)CC2 (racemic) | 62 nM | > 100000 nM | –
Cc1ccc([C@]2(O)CCCC[C@H]2N2CCC3(CC2)C(=O)NCN3c2ccccc2)cc1 (racemic) | 140 nM | 25000 nM | –
O=C1NCN(c2ccccc2)C12CCN([C@@H]1CCCC[C@@]1(O)c1ccccc1)CC2 (racemic) | 44 nM | 72000 nM | –
CCCN1CNC(=O)C12CCN([C@H]1CCCC[C@H]1c1ccccc1)CC2 (racemic) | – | – | microsomal CLint [4]: 25 µL/min/mg; microsomal CLint [5]: 10 µL/min/mg
COc1cccc([C@]2(O)CCCC[C@H]2N2CCC3(CC2)C(=O)NCN3c2ccccc2)c1 (racemic) | 130 nM | 41000 nM | –
C[C@]1(O)CCCC[C@H]1N1CCC2(CC1)C(=O)NCN2c1ccccc1 (racemic) | 9000 nM | – | –
O=C1NCN(c2ccccc2)C12CCN([C@@H]1CCCC[C@@]1(O)c1ccc(Cl)cc1)CC2 (racemic) | 80 nM | 16000 nM | –
O=C1NCN(c2ccc(Cl)cc2)C12CCN([C@@H]1CCCC[C@@]1(O)c1ccc(F)cc1)CC2 (racemic) | 15 nM | 2500 nM | –
O=C1NCN(c2ccc(F)cc2)C12CCN([C@@H]1CCCC[C@@]1(O)c1ccc(Cl)cc1)CC2 (racemic) | 24 nM | 19000 nM | –
CC(C)[C@]1(O)CCCC[C@H]1N1CCC2(CC1)C(=O)NCN2c1ccccc1 (mixture of isomers) | > 3000 nM | – | –
O=C1NCN(c2ccccc2)C12CCN([C@@H]1CCCC[C@@]1(O)c1ccc(F)cc1)CC2 (relative stereo) | 40 nM | 57000 nM | –
O=C1NCN(c2ccccc2)C12CCN([C@H]1CCCC[C@H]1c1ccccc1)CC2 (racemic) | – | – | microsomal CLint [4]: 68 µL/min/mg
O=C1NCN(c2ccccc2)C12CCN([C@@H]1CCCC[C@@]1(O)Cc1ccccc1)CC2 (racemic) | 4400 nM | – | –
O=C1NCN(c2ccccc2)C12CCN([C@@H]1CCCC[C@@]1(O)C1CCCCC1)CC2 (racemic) | 17000 nM | – | –

From ChEMBL document CHEMBL1147765, “Discovery of N-(2-hydroxy-2-aryl-cyclohexyl) substituted spiropiperidines as GlyT1 antagonists with improved pharmacological profile” (Bioorg Med Chem Lett, 2006)
